Measured values reported in publication PMC2767256 (Biochemical pharmacology, 2009).
pIC50: −log10 of the molar value.

Experiments:
Format in all cases: biochemical
SULT1A1 = SULT1A1 (Homo sapiens, UniProt P50225); test: inhibition of 4-nitrophenol sulfation with […]PAPS in BeWo cytosol
SULT1A3 = SULT1A3 (Homo sapiens, UniProt P0DMM9); test: inhibition of dopamine sulfation with […]PAPS in BeWo cytosol
SULT2A1 = biological target: T1, SULT2A1 (Homo sapiens, UniProt Q06520); test: sulfation of [3H]DHEA
T1 sequence (Q06520 1-285): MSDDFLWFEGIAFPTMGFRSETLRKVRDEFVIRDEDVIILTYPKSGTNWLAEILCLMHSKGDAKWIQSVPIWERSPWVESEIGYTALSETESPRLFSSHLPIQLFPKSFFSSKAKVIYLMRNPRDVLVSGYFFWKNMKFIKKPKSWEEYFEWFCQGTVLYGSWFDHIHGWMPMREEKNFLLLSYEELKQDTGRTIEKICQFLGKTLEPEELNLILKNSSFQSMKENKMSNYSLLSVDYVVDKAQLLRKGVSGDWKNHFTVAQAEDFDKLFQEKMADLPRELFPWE

Sequence of SULT1A1 (P50225 whole entry): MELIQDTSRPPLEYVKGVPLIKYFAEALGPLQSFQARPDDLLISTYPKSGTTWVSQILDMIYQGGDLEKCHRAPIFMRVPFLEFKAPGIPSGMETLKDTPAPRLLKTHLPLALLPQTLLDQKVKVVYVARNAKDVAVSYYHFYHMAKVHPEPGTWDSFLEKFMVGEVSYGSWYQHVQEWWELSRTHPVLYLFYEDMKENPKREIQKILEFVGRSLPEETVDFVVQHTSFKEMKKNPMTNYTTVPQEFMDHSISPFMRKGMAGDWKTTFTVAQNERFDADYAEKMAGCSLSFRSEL
Sequence of SULT1A3 (P0DMM9 whole entry): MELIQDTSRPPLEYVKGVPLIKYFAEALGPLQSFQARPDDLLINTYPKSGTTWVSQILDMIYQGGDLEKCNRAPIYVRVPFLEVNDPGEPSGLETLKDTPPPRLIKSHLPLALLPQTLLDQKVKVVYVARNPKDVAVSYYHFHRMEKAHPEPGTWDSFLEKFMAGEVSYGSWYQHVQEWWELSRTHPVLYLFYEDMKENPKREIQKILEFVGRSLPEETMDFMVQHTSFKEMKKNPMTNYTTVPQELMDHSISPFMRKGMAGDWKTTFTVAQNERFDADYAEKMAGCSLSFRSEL

SMILES | pIC50 (SULT1A1) | pIC50 (SULT1A3) | sulfation of [3H]DHEA (3 and 10 μM) by purified SULT2A1 (SULT2A1)
O=[N+]([O-])c1cc(Cl)c(O)c(Cl)c1 [DCNP, 2,6-dichloro-4-nitrophenol] | 7.28 | 3.08 | 
C[C@]12CC[C@H](O)CC1=CC[C@@H]1[C@@H]2CC[C@]2(C)C(=O)CC[C@@H]12 [DHEA, dehydroepiandrosterone] |  |  | Under the same assay conditions, purified SULT2A1 readily sulfated DHEA
